Where a name gives a salt, the structure may show the parent alone. Read-outs that look alike come from different tables or passages of the source. Bridge positions count the residues as written; N and C are the ends. Peptide text beside a SMILES is read from it.
Key:
aprotinin (Bos taurus) = aprotinin (Bos taurus) (UniProt P00974); settings: cited from earlier work
KLK5 [1] = molecular target: T1, KLK5 (Homo sapiens, UniProt Q9Y337); assay: Protease activity assay: inhibition of recombinant KLK5 (Boc-VPR-AMC substrate); type: biochemical; settings: for selectivity for KLK5 against select KLKs in skin: KLK5 versus other skin KLKs; for IC50: n = 3, 10 nM KLK5, Boc-VPR-AMC 100 µM, PBS pH 8.0, read-out: IC50 (n = 3)/nM for KLKs: KLK5
T1 construct: purchased R&D Systems 1108-SE
T1 sequence (Q9Y337 23-293): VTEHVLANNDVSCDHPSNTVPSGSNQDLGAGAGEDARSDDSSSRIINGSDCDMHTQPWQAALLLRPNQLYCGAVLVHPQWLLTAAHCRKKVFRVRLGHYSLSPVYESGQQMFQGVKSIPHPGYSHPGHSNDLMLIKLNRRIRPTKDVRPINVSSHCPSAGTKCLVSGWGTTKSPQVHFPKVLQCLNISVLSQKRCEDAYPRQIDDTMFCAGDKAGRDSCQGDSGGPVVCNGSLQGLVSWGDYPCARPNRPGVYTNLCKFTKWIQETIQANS
Procedure: Inhibitory activity against KLK5 was evaluated using the fluorogenic substrate Boc-VPR-AMC for KLK5 (Table ). […] The P1–P1′ reactive site (Arg5 to Ser6) is critical for inhibitor binding, with the P1′ position contributing up to 50% of the total association energy. , The conserved serine at P1′ in Bowman-Birk inhibitors (BBIs) is essential for function. […] Preservation of serine in the P1′ position restored inhibitory activity seen in 5 and 6. Preserving the native serine restored efficacy to the nanomolar range (5: 31 ± 7 nM; 6: 114 ± 11 nM).
Methods for biological experiment
SFTI analogues were created by individual amino acid substitutions in PYMOL (Python Molecular Graphics System) using the existing solution NMR structure of native SFTI - 1 (1JBL) found in the RCSB (Research Collaboratory for Structural Bioinformatics) database. Residues of 2 were mutated as follows: L5R, I10H, and F12W with conserved SFTI-1 backbone structure. Other SFTI based analogues were further modified using PYMOL. Currently, there are no SFTI-1 and Kallikrein 5 co-crystal structures found in the RCSB database. Superimposing the existing crystal structure of SFTI-1 and Trypsin complex (4XOJ) with Kallikrein 5 crystal structure (2PSX) was performed with PYMOL. Ab-initio docking between KLK5 and 2 were performed with HADDOCK 2.4 1, 2, with binding active site parameter set to Arg2, Cys3, Thr4, Arg5, Ser6 for 2 and Ser195, His57, and Asp102 for KLK5 catalytic triad. PRODIGY 3-5, set at 25 °C, was used to predict dissociation constant and binding interactions of docked clusters. Structural visualization and alignment were performed with PYMOL 6, and comparative sequence analysis was performed with MEGA11 7.
A fluorescence spectrometer using SpectraMax® i3x plate reader (Molecular Devices, United States) was used to measure the relative fluorescence unit (RFU) on a 96-well black microplate (Grenier Bio-one, cat no. 655074). The wavelengths were set to 360/460 nm (excitation/emission) for the substrate Boc-VPR-AMC (Bachem AG, cat no. 4003460) and 320/405nm for the substrate Mca-RPKPVE-Nval-WRK(Dnp)-NH2 Fluorogenic MMP Substrate (R&D Systems Biotechne, cat no.ES002). The Boc-VPR-AMC stock solution was prepared by dissolving the solid form in dimethyl sulfoxide to 100 mM. Mca-RPKPVE-Nval-WRK(Dnp)-NH2 fluorogenic MMP Substrate is supplied as stock solution at 10.0 mg/mL in dimethyl sulfoxide. Boc-VPR-AMC was used as a substrate for KLK5, 8 and 14. Mca-RPKPVE-Nval-WRK(Dnp)-NH2 was used as a substrate for KLK7. The ligand-only solution serves as a negative control (minimum RFU, 100% inhibition), and enzyme-only was served as positive (maximum RFU, 0% inhibition). The activities of proteases were measured and readout against the standard curve made in serial dilutions of tested recombinant KLKs, ranging from 0nM to 60nM. Each assay was done in triplicates and repeated at least for three times […]
Assessment of analogue mediated inhibition of KLK5, KLK7, KLK8, and KLK14 […]
Recombinant KLK5 (R&D Systems, cat no. 1108-SE) was diluted to a final concentration of 10 nM in 1X PBS (pH 8.0). KLK5 was pre -incubated on ice for 1 hour with serial dilutions of SFTI-derived analogues to assess inhibitory activity. After incubation, 20 µL of each mixture was transferred to we lls of a 96-well microplate in triplicates. The enzymatic reaction was initiated by adding 100 µL of Boc -VPR-AMC substrate (final concentration 100 µM) to each well. Fluorescence (RFU) was measured using a SpectraMax® i3x plate reader with chamber temperature maintained at 37°C. Readings were started at 0 minutes (baseline) and another […]
Recombinant KLK7 (R&D Systems , cat no. 2624-SE) and KLK14 (R&D Systems, cat no. 2664-SE) were activated by adding 1 mM CaCl ₂ 0.05% v/v Brij-35 (Sigma, cat no. […]
incubated at 37°C for 1 hour. Reactions were stopped by adding EDTA to a final concentration of 50 mM (Sigma, cat no. EDS-100G) KLK8 (catalytic domain only; R&D Systems, cat no. 2025-SE-010) was activated separately with 11 nM lysyl […]

KLK7 [2] = molecular target: T2, KLK7 (Homo sapiens, UniProt P49862); assay: Protease activity assay: inhibition of recombinant KLK7 (Mca-RPKPVE-Nval-WRK(Dnp)-NH2 substrate); type: biochemical; parameters: purchased R&D Systems 2624-SE; settings: n = 3; 100 nM KLK7, 37°C, 20 hours; read-out: IC50 (n = 3)/nM for KLKs: KLK7
Source text: using the following equation: […]
(1 picture or pasted object on this page, not shown here)

KLK5 [3] = molecular target: T1, KLK5; parameters: method as in Chen et al. (2016); settings: earlier work of the authors; ref Chen et al. (2016); read-out: IC50 (n = 3)/nM for KLKs: KLK5; cited from earlier work
KLK8 [4] = molecular target: T3, KLK8 (Homo sapiens, UniProt O60259); parameters: method as in Chen et al. (2016); settings: ref Chen et al. (2016); read-out: IC50 (n = 3)/nM for KLKs: KLK8; cited from earlier work
T3 construct: purchased R&D Systems 2025-SE-010
T3 sequence (O60259 33-260): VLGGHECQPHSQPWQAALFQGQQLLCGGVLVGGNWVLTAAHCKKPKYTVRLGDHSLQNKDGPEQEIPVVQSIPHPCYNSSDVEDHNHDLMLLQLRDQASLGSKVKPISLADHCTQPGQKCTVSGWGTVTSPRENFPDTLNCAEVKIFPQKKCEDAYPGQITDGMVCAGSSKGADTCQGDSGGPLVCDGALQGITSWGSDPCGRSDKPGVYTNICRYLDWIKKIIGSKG

LEKTI-2 (Homo sapiens) = LEKTI-2 (Homo sapiens) (UniProt Q5DT21); settings: cited from earlier work
trypsin = test system: trypsin; parameters: method as in PMID 143965; settings: cited from earlier work
plasmin [5] = test system: plasmin; parameters: method as in PMID 143965; settings: cited from earlier work
plasma kallikrein = test system: plasma kallikrein; parameters: method as in PMID 143965; settings: cited from earlier work
thrombin = test system: thrombin; parameters: method as in PMID 143965; settings: cited from earlier work
plasmin [6] = molecular target: plasmin; parameters: method as in PMID 7543841; settings: read-out: Ki against trypsin-like plasmin; cited from earlier work
[7] = molecular target: Kallikrein-related peptidase 5 (KLK5) (UniProt Q9Y337); assay: enzyme inhibition assay (fluorogenic substrate); inhibition of KLK5 activity by the peptide, fluorogenic substrate Boc-VPR-AMC, n = 3; conditions in the Supporting Information
KLK14 [8] = molecular target: T4, KLK14 (UniProt Q9P0G3); assay: enzyme inhibition assay (fluorogenic substrate); selectivity: inhibition of KLK7, KLK8 or KLK14 activity by the peptide, n = 3; substrates and conditions in the Supporting Information
T4 sequence (Q9P0G3 41-267, species assumed, looked up): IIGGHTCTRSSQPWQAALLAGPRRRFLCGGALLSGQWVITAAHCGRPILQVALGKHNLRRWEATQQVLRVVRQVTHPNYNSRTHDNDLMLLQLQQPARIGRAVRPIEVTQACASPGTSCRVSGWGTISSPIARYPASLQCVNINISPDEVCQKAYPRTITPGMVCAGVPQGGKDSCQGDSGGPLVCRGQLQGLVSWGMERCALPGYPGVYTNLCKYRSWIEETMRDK

KLK8 [9] = molecular target: T5, KLK8 (UniProt O60259 33-260); assay: as above
T5 construct: Kallikrein 8 (KLK8); construct and source are in the Supporting Information
T5 sequence (looked up): T3 sequence (O60259 33-260)

KLK14 [10] = molecular target: T6, KLK14 (Homo sapiens, UniProt Q9P0G3); settings: prior findings, reference not given; cited from earlier work
T6 construct: purchased R&D Systems 2664-SE
T6 sequence (Q9P0G3 25-251): T4 sequence (Q9P0G3 41-267, species assumed, looked up)

KLK7 [11] = molecular target: T2, KLK7; parameters: purchased R&D Systems 2624-SE; settings: prior findings, reference not given; cited from earlier work
Target sequence in this assay (P49862 30-253): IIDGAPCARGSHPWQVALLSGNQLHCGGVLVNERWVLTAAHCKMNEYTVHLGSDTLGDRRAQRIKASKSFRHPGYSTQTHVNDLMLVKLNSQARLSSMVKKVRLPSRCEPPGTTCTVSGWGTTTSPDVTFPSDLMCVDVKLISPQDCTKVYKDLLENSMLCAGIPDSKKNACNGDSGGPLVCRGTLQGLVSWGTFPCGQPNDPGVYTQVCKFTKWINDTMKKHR

Q: For plasmin (from UniProt P00747), which Ki (aprotinin (Bos taurus)) is on record?
A: 0.07 nM

Q: With C[C@@H](O)[C@@H]1NC(=O)[C@@H]2CSSC[C@H](NC(=O)[C@H](CCC(=O)O)NC(=O)[C@@H]3CCCN3C(=O)[C@@H]3CCCN3C(=O)[C@H](CO)NC(=O)[C@H](CO)NC(=O)[C@H](CCCNC(=N)N)NC1=O)C(=O)N[C@@H](Cc1c[nH]c3ccccc13)C(=O)N1CCC[C@H]1C(=O)N[C@@H](CC(N)=O)C(=O)NCC(=O)N[C@@H](CO)C(=O)N2 [compound 9] (cyclo(GSCTRSSPPECWPN); disulfide 3-11) as the molecule, how does the “selectivity for KLK5 against select KLKs in skin” value (KLK5 [1]) read?
A: 4 fold

Q: What about the IC50 (KLK5 [1]) of the same molecule?
A: 54 ± 6 nM

Q: And the IC50 (KLK7 [2])?
A: 165 ± 12 nM

Q: Which results are given for “Sunflower trypsin inhibitor-1 [compound 1]”?
A: IC50 (KLK5 [3]): 230 ± 3 nM; IC50 (KLK8 [4]): 1290 ± 51 nM

Q: For KLK5 (from UniProt Q9Y337), which Ki (LEKTI-2 (Homo sapiens)) is on record?
A: 65 nM

Q: Which “selectivity for KLK5 against select KLKs in skin” value (KLK5 [1]) does the source give for C[C@@H](O)[C@@H]1NC(=O)[C@@H]2CSSC[C@H](NC(=O)[C@H](CCC(=O)O)NC(=O)[C@@H]3CCCN3C(=O)[C@@H]3CCCN3C(=O)[C@H](CO)NC(=O)[C@H](CO)NC(=O)[C@H](CCCNC(=N)N)NC1=O)C(=O)N[C@@H](Cc1c[nH]c3ccccc13)C(=O)N1CCC[C@H]1C(=O)N[C@@H](CC(N)=O)C(=O)NCC(=O)N[C@@H](Cc1ccc(O)cc1)C(=O)N2 [compound 10] (cyclo(GYCTRSSPPECWPN); disulfide 3-11) here?
A: 4 fold

Q: And the IC50 (KLK5 [1])?
A: 56 ± 7 nM

Q: What about the IC50 (KLK7 [2]) of the same molecule?
A: 240 ± 14 nM

Q: For CCOC(=O)c1ccc(OC(=O)CCCCCN=C(N)N)cc1 [Gabexate mesylate], which IC50 (trypsin) is on record?
A: 9400 nM

Q: And the IC50 (plasmin [5])?
A: 30000 nM

Q: And the IC50 (plasma kallikrein)?
A: 41000 nM

Q: What about the IC50 (thrombin) of the same molecule?
A: 110000 nM

Q: With Aprotinin as the molecule, how does the Ki (plasmin [6]) read?
A: 0.07 nM

Q: Which IC50 [7] does the source give for “Sunflower trypsin inhibitor-1 (SFTI-1) 1 (peptide)” here?
A: 230 nM

Q: And the IC50 (KLK14 [8])?
A: 30 nM

Q: What about the IC50 (KLK8 [9]) of the same molecule?
A: 1290 nM

B1: LEKTI-2: LEKTI-2, encoded by SPINK9, selective binding to KLK5 (protein, UniProt Q5DT21 20-86, looked up)
Serine protease inhibitor …: IECAKQTKQMVDCSHYKKLPPGQQRFCHHMYDPICGSDGKTYKNDCFFCSKVKKTDGTLKFVHFGKC
Q: With B1 as the molecule, how does the “inhibition of KLK14” value (KLK14 [10]) read?
A: without potently inhibiting

Q: What about the “inhibition of KLK7” value (KLK7 [11]) of the same molecule?
A: without potently inhibiting

Source: paper PMC12670400, “LEKTI-Grafted Sunflower Trypsin Inhibitor: A Potential Therapeutic for Skin Diseases” (Journal of Medicinal Chemistry, 2025)
